Results reported in ChEMBL document CHEMBL1781877, “Synthesis and evaluation of new carbonic anhydrase inhibitors” (2011).

The molecules below were run on Mus musculus (assay: Antihypoxic activity in fasted Kunming mouse assessed as survival time of mouse under hypoxic condition at 80 mg/kg administered for 5 days (reference value: 2199 +/-217 secs)).
Assay type: functional
In the case of `CCCN(c1nnc(S(N)(=O)=O)s1)S(=O)(=O)c1ccccc1`, the Time is reported as 3135 s.
`Cc1ccc(S(=O)(=O)N(Cc2ccccc2)c2nnc(S(N)(=O)=O)s2)cc1` was tested, and the Time was 2582 s.
Molecule `Cc1ccc(S(=O)(=O)N(c2nnc(S(N)(=O)=O)s2)C(C)C)cc1` has a Time of 2426 s.
`Cc1ccc(S(=O)(=O)N(CC(C)C)c2nnc(S(N)(=O)=O)s2)cc1` was tested, and the Time was 3486 s.
`Cc1ccc(S(=O)(=O)N(CCc2ccccc2)c2nnc(S(N)(=O)=O)s2)cc1` gave a Time of 2441 s.
For `Cc1ccc(CN(c2nnc(S(N)(=O)=O)s2)S(=O)(=O)c2ccc(C)cc2)cc1`, the Time was 2512 s.
`Cc1ccc(S(=O)(=O)N(Cc2ccc(F)cc2)c2nnc(S(N)(=O)=O)s2)cc1` was tested, and the Time was 2860 s.
Work on `CCN(c1nnc(S(N)(=O)=O)s1)S(=O)(=O)c1ccccc1` yielded a Time of 2716 s.
With `CCCCN(c1nnc(S(N)(=O)=O)s1)S(=O)(=O)c1ccccc1` the Time was 2977 s.
`CCCCCN(c1nnc(S(N)(=O)=O)s1)S(=O)(=O)c1ccccc1` showed a Time of 2716 s.
`CC(=O)Nc1nnc(S(N)(=O)=O)s1` [ACETAZOLAMIDE] gave a Time of 2726 s.
